# Earlier results, collected in patent US8758823B2, “Method for obtaining non-water-soluble powders having antimicrobial activity, the powders thus obtained and the antibacterial use thereof” (Poly-Bio, priority 2009, dated 2014).
# System: Staphylococcus aureus
# Settings: quaternary ammonium chloride in aqueous solution; AKZO NOBEL guideline formulation
compound,measurement,value
"CCCCCCCCCC[N+](C)(C)CCCCCCCCCC.[Cl-] [ARQUAD 210-50, didecyl dimethyl ammonium chloride]",concentration recommended to obtain the same result (reduction greater than 5 Log),12 to 16 ppm
